Assay results from the supplement of paper PMC5908809.

Key:
[1] = test system: normal NK cells expanded with K562-aAPC; assay: percent inhibition of viability; higher = more inhibition; details: 72 h, IL-2 2.5 ng/mL
Procedure: (§1)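 Drug sensitivity and resistance testing on K562-aAPC-expanded normal NK cells: 5 concentrations (10-fold steps over a 10,000-fold range), 72 h at 37 °C, viability by CellTiter-Glo normalised to DMSO and benzethonium chloride controls; DSS from the fitted curve.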

DERL-7 (IL-2 2.5 ng/mL) [2] = assay: as above; details: 72 h
IMC-1 (IL-2 20 ng/mL) [3] = assay: as above; details: 72 h
KAI3 (IL-2 2.5 ng/mL) [4] = assay: as above; details: 72 h
KHYG-1 (IL-2 2.5 ng/mL) [5] = assay: as above; details: 72 h
NK-92 (IL-2 2.5 ng/mL) [6] = assay: as above; details: 72 h
NK-YS (IL-2 2.5 ng/mL) [7] = assay: as above; details: 72 h
NKL (IL-2 2.5 ng/mL) [8] = assay: as above; details: 72 h
SNK-6 (IL-2 2.5 ng/mL) [9] = assay: as above; details: 72 h
YT (IL-2 2.5 ng/mL) [10] = assay: as above; details: 72 h
[11] = test system: normal primary NK cells, pool 1 (3 donors) (IL-2 2.5 ng/mL); assay: as above; details: 72 h
[12] = test system: normal primary NK cells, pool 1 (3 donors), resting (IL-2 0 ng/mL); assay: as above; details: 72 h
[13] = test system: normal primary NK cells, pool 2 (3 donors) (IL-2 2.5 ng/mL); assay: as above; details: 72 h
[14] = test system: normal primary NK cells, pool 3 (3 donors) (IL-2 2.5 ng/mL); assay: as above; details: 72 h
[15] = test system: normal NK cells expanded with K562-aAPC; assay: drug sensitivity score (DSS) (DSS units); higher = more sensitive; extreme values may be limits of the assay; details: 72 h; IL-2 2.5 ng/mL
Procedure: as §1

DERL-7 (IL-2 2.5 ng/mL) [16] = assay: as above; details: 72 h
IMC-1 (IL-2 20 ng/mL) [17] = assay: as above; details: 72 h
KAI3 (IL-2 2.5 ng/mL) [18] = assay: as above; details: 72 h
KHYG-1 (IL-2 2.5 ng/mL) [19] = assay: as above; details: 72 h
NK-92 (IL-2 2.5 ng/mL) [20] = assay: as above; details: 72 h
NK-YS (IL-2 2.5 ng/mL) [21] = assay: as above; details: 72 h
NKL (IL-2 2.5 ng/mL) [22] = assay: as above; details: 72 h
SNK-6 (IL-2 2.5 ng/mL) [23] = assay: as above; details: 72 h
YT (IL-2 2.5 ng/mL) [24] = assay: as above; details: 72 h
[25] = test system: normal primary NK cells, pool 1 (3 donors) (IL-2 2.5 ng/mL); assay: as above; details: 72 h
[26] = test system: normal primary NK cells, pool 1 (3 donors), resting (IL-2 0 ng/mL); assay: as above; details: 72 h
[27] = test system: normal primary NK cells, pool 2 (3 donors) (IL-2 2.5 ng/mL); assay: as above; details: 72 h
[28] = test system: normal primary NK cells, pool 3 (3 donors) (IL-2 2.5 ng/mL); assay: as above; details: 72 h

COc1ccc(-c2nc(N3CCOCC3)c3sc(CN(C)c4ncc(C(=O)NO)cn4)cc3n2)cn1 [CUDC-907] (max concentration tested 10000 nM)
percent inhibition of viability [%]
Details | 1 nM | 10 nM | 100 nM | 1000 nM | 10000 nM
DERL-7 (IL-2 2.5 ng/mL) [2] | 23.5 | 99.7 | 100 | 100 | 99.7
IMC-1 (IL-2 20 ng/mL) [3] | -4.89 | 34.3 | 100 | 101 | 100
KAI3 (IL-2 2.5 ng/mL) [4] | 52.6 | 75.5 | 102 | 104 | 98.9
KHYG-1 (IL-2 2.5 ng/mL) [5] | 16.1 | 94.5 | 103 | 103 | 98.7
NK-92 (IL-2 2.5 ng/mL) [6] | 23.2 | 83.5 | 102 | 103 | 97
NK-YS (IL-2 2.5 ng/mL) [7] | 6.56 | 55.9 | 101 | 103 | 99
NKL (IL-2 2.5 ng/mL) [8] | 56.5 | 77 | 103 | 104 | 99.2
SNK-6 (IL-2 2.5 ng/mL) [9] | 0.83 | 63.5 | 99.8 | 100 | 100
YT (IL-2 2.5 ng/mL) [10] | 5.94 | 27.4 | 103 | 104 | 99.1
[1] | 10.6 | 55.4 | 100 | 99.9 | 99.9
[11] | 2.74 | 68.2 | 96.4 | 97.7 | 97.2
[12] | 15.9 | 72.7 | 90.1 | 91 | 91.7
[13] | 1.42 | 74.2 | 94.2 | 94 | 94.8
[14] | -5.77 | 56.8 | 97.2 | 96.7 | 98.1

Details | drug sensitivity score
DERL-7 (IL-2 2.5 ng/mL) [16] | 46.5
IMC-1 (IL-2 20 ng/mL) [17] | 35.3
KAI3 (IL-2 2.5 ng/mL) [18] | 43.4
KHYG-1 (IL-2 2.5 ng/mL) [19] | 44.4
NK-92 (IL-2 2.5 ng/mL) [20] | 42.9
NK-YS (IL-2 2.5 ng/mL) [21] | 37.1
NKL (IL-2 2.5 ng/mL) [22] | 43.8
SNK-6 (IL-2 2.5 ng/mL) [23] | 37.9
YT (IL-2 2.5 ng/mL) [24] | 34.6
[15] | 37.1
[25] | 38
[26] | 38.4
[27] | 37.7
[28] | 36.7

Cc1nc(N)sc1-c1ccnc(Nc2ccc(N3CCOCC3)cc2)n1 [CYC-116] (max concentration tested 10000 nM)
percent inhibition of viability [%]
Details | 1 nM | 10 nM | 100 nM | 1000 nM | 10000 nM
DERL-7 (IL-2 2.5 ng/mL) [2] | -3.32 | -3.55 | 6.03 | 60.9 | 84.2
IMC-1 (IL-2 20 ng/mL) [3] | -0.53 | -4.65 | 3.54 | 44.8 | 83.8
KAI3 (IL-2 2.5 ng/mL) [4] | -1.55 | -6.85 | 1.16 | 39.8 | 89.7
KHYG-1 (IL-2 2.5 ng/mL) [5] | -0.11 | -0.55 | 5.34 | 70.7 | 106
NK-92 (IL-2 2.5 ng/mL) [6] | -10.5 | -10.4 | 3.17 | 39.8 | 72.8
NK-YS (IL-2 2.5 ng/mL) [7] | -2.66 | -0.98 | 6.79 | 70.6 | 70.8
NKL (IL-2 2.5 ng/mL) [8] | -16 | -8.68 | -5.36 | 42.6 | 83.9
SNK-6 (IL-2 2.5 ng/mL) [9] | 0.9 | -6.56 | 15.3 | 73.9 | 72.3
YT (IL-2 2.5 ng/mL) [10] | 0.75 | 1.77 | 4.66 | 29.5 | 94.7
[1] | -2.89 | -0.2 | 2.84 | 57.5 | 82
[11] | -7.14 | -2.39 | -10.8 | 13.2 | 71.7
[12] | -4.6 | 6.4 | -9.95 | -18.7 | 23.6
[13] | -11.2 | -13.2 | -3.79 | 16.1 | 68.8
[14] | -12.5 | -8.65 | 4.23 | 3.35 | 71.4

Details | drug sensitivity score
DERL-7 (IL-2 2.5 ng/mL) [16] | 12.4
IMC-1 (IL-2 20 ng/mL) [17] | 9.98
KAI3 (IL-2 2.5 ng/mL) [18] | 10.1
KHYG-1 (IL-2 2.5 ng/mL) [19] | 14.2
NK-92 (IL-2 2.5 ng/mL) [20] | 8.76
NK-YS (IL-2 2.5 ng/mL) [21] | 14.1
NKL (IL-2 2.5 ng/mL) [22] | 9.96
SNK-6 (IL-2 2.5 ng/mL) [23] | 16
YT (IL-2 2.5 ng/mL) [24] | 9.36
[15] | 11.5
[25] | 6.12
[26] | 0.44
[27] | 6.33
[28] | 4.4
